Data published in ChEMBL document CHEMBL1126778, “Adenosine A1 antagonists. 3. Structure-activity relationships on amelioration against scopolamine- or N6-((R)-phenylisopropyl)adenosine-induced cognitive disturbance” (J Med Chem, 1993).

Columns and labels:
Adenosine receptor A1 = target: T1, Adenosine receptor A1 (Bos taurus, UniProt P28190); test: Binding affinity towards Adenosine A1 receptor of bovine brain at 10e-5 M with [125I]-N6-aminobenzyladenosine
T1 sequence (P28190 whole entry): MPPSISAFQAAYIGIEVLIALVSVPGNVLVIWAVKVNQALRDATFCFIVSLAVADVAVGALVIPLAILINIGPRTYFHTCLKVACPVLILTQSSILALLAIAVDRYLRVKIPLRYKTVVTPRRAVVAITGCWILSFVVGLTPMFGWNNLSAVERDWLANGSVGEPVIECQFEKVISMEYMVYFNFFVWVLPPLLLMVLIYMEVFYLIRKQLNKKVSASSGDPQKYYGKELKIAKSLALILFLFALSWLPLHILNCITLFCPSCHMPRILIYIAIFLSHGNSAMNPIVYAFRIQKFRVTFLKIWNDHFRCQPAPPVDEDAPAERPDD

Adenosine A2 receptor = Adenosine A2 receptor (Homo sapiens, UniProt P29275+P29274); test: Binding affinity towards Adenosine A2 receptor of human platelets with [125I]-N6-aminobenzyladenosine
Mus musculus [1] = test: Acquisition time in (R)-PIA) induced avoidance test (performed in mice) for antagonistic activity after peroral administration of 0.08 mg/kg; format: functional; details: route oral
Mus musculus [2] = test: Acquisition time in (R)-PIA) induced avoidance test (performed in mice) for antagonistic activity after p.o. administration of 0.31 mg/kg; format: functional; details: route oral
Mus musculus [3] = test: Acquisition time in (R)-PIA) induced avoidance test (performed in mice) for antagonistic activity after p.o. administration of 1.25 mg/kg; format: functional; details: route oral
Mus musculus [4] = test: Retention time in (R)-PIA) induced avoidance test (performed in mice) for antagonistic activity after p.o. administration of 1.25 mg/kg; format: functional, organism-based; design: dose 1.25 mg/kg
Mus musculus [5] = test: Retention time in (R)-PIA) induced avoidance test (performed in mice) for antagonistic activity after peroral administration of 5 mg/kg; format: functional, organism-based; design: dose 5 mg/kg
Mus musculus [6] = test: Retention time in (R)-PIA) induced avoidance test (performed in mice) for antagonistic activity after peroral administration of 0.08 mg/kg; format: functional, organism-based; design: dose 0.08 mg/kg
Mus musculus [7] = test: Retention time in (R)-PIA) induced avoidance test (performed in mice) for antagonistic activity after peroral administration of 0.31 mg/kg; format: functional, organism-based; design: dose 0.31 mg/kg
Rattus norvegicus [8] = test: Acquisition time in Scopolamine induced avoidance test (performed in rat) for antagonistic activity after peroral administration of 1.25 mg/kg; format: functional; details: route oral
Rattus norvegicus [9] = test: Acquisition time in Scopolamine induced avoidance test (performed in rat) for antagonistic activity after peroral administration of 20 mg/kg; format: functional; details: route oral
Rattus norvegicus [10] = test: Acquisition time in Scopolamine induced avoidance test (performed in rat) for antagonistic activity after p.o. administration of 0.08 mg/kg; format: functional; details: route oral
Rattus norvegicus [11] = test: Acquisition time in Scopolamine induced avoidance test (performed in rat) for antagonistic activity after p.o. administration of 0.31 mg/kg; format: functional; details: route oral
Rattus norvegicus [12] = test: Acquisition time in Scopolamine induced avoidance test (performed in rat) for antagonistic activity after p.o. administration of 5 mg/kg; format: functional; details: route oral
Rattus norvegicus [13] = test: Retention time in Scopolamine induced avoidance test (performed in […]) for antagonistic activity after peroral administration of 5 mg/kg; format: functional, organism-based; design: dose 5 mg/kg
Rattus norvegicus [14] = test: Retention time in Scopolamine induced avoidance test (performed in rat) for antagonistic activity after p.o. administration of 0.08 mg/kg; format: functional, organism-based; design: dose 0.08 mg/kg
Rattus norvegicus [15] = test: Retention time in Scopolamine induced avoidance test (performed in rat) for antagonistic activity after p.o. administration of 0.31 mg/kg; format: functional, organism-based; design: dose 0.31 mg/kg
Rattus norvegicus [16] = test: Retention time in Scopolamine induced avoidance test (performed in rat) for antagonistic activity after peroral administration of 1.25 mg/kg; format: functional, organism-based; design: dose 1.25 mg/kg
Rattus norvegicus [17] = test: Retention time in Scopolamine induced avoidance test (performed in rat) for antagonistic activity after peroral administration of 20 mg/kg; format: functional, organism-based; design: dose 20 mg/kg
Mus musculus [18] = test: Acquisition time in (R)-PIA) induced avoidance test (performed in mice) for antagonistic activity after peroral administration of 5 mg/kg; format: functional; details: route oral
Mus musculus [19] = test: Retention time in (R)-PIA) induced avoidance test (performed in mice) for antagonistic activity after peroral administration of 0.02 mg/kg
Mus musculus [20] = test: Acquisition time in (R)-PIA) induced avoidance test (performed in mice) for antagonistic activity after peroral administration of 0.02 mg/kg; details: route oral

- Ki (Adenosine receptor A1): 0.016 µM
- Ki (Adenosine A2 receptor): > 100 µM
SMILES: CCCn1c(=O)c2nc(C3CCCC3)[nH]c2n(CCc2ccc(NC(=O)C(C)C)cc2)c1=O
- Acquisition time (Mus musculus [1]): 16 s
- Acquisition time (Mus musculus [2]): 29.3 s
- Acquisition time (Mus musculus [3]): 33.3 s
- Retention time (Mus musculus [4]): 171 s
- Retention time (Mus musculus [5]): 94.7 s
- Retention time (Mus musculus [6]): 32.9 s
- Retention time (Mus musculus [7]): 88.6 s
- Acquisition time (Rattus norvegicus [8]): 6.6 s
- Acquisition time (Rattus norvegicus [9]): 9 s
- Acquisition time (Rattus norvegicus [10]): 10.1 s
- Acquisition time (Rattus norvegicus [11]): 10.1 s
- Acquisition time (Rattus norvegicus [12]): 11.9 s
- Retention time (Rattus norvegicus [13]): 20 s
- Retention time (Rattus norvegicus [14]): 10.7 s
- Retention time (Rattus norvegicus [15]): 18.6 s
- Retention time (Rattus norvegicus [16]): 19.3 s
- Retention time (Rattus norvegicus [17]): 65.4 s
- Acquisition time (Mus musculus [18]): 34.4 s
- Retention time (Mus musculus [19]): 9.4 s
- Acquisition time (Mus musculus [20]): 6 s
